This is an account of results in publication PMC2826142 (Journal of medicinal chemistry, 2010).

Entries after “also recorded” stand apart in the source; their conditions may differ.

In data set [1] the target is T1, human adenosine A2A receptor (Homo sapiens, UniProt P29274). The data set is described as follows: Radioligand displacement at A2AAR-HEK membranes. The class given is binding. Conditions: for Max Displacement at A2AAR-HEK membranes: 10 µM of test compound; for A2A / A1 selectivity: mammalian membranes, A2AAR over A1AR. Background: Loss of bound radioactivity is the signal in a displacement assay; it reports binding, not function.

Data set [2] addresses T2, human adenosine A1 receptor (Homo sapiens, UniProt P30542).
T2 sequence (P30542 1-326): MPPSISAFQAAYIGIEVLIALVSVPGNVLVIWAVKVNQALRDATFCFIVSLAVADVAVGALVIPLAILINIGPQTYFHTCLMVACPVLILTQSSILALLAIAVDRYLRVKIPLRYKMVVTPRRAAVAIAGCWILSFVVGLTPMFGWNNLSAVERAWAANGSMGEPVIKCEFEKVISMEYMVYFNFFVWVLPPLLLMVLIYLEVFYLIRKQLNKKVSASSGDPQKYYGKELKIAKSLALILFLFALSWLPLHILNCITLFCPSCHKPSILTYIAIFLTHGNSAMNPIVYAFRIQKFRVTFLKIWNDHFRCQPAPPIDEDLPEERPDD
Briefly: Radioligand. The class given is binding. Conditions: for inhibition at 10 µM: read-out: Max Displacement A1AR-CHO membranes.

A further data set addresses human A2AAR receptor (Homo sapiens, UniProt P29274). Briefly: Competition binding with tritiated compound 1. The note with it: for LE (experimental ligand efficiency): ligand binding energy per heavy atom, from Sf9 Ki.
For data set [3], the target named is T1, human adenosine A2A receptor. The data set is described as follows: Functional cAMP accumulation assay. The data set is classed as cell-based. The note with it: 10 µM compound, 10 nM or 10 µM 3a. On the technique in general: Cyclic AMP is a second messenger, typically raised through Gs and lowered through Gi signalling.
Data set [4] relates to forskolin stimulated cAMP generation. Briefly: Forskolin stimulated cAMP generation. The data set is classed as cell-based. The note with it: data not shown.
Data set [5] can be described thus: Visible sedimentation in binding assay. The note with it: binding assay buffer.

T1 sequence (P29274 whole entry): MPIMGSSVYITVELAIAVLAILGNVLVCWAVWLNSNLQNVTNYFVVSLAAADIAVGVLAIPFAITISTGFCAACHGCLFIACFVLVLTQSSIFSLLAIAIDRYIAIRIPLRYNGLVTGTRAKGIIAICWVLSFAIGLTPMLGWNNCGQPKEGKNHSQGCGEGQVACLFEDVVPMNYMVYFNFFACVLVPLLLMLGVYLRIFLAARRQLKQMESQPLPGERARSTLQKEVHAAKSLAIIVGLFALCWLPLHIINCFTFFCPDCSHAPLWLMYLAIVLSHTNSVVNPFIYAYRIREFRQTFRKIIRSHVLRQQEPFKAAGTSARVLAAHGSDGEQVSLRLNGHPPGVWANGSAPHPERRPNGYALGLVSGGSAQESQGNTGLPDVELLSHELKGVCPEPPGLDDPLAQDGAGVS
human A2AAR receptor, sequence (P29274 whole entry): as above

Regarding `N#Cc1c(N)nc2c(oc3ccccc32)c1-c1ccccc1` [compound 15], in data set [1], the Ki came out at 560 nM, the “Max Displacement at A2AAR-HEK membranes” value stood at 73% and the “A2A / A1 selectivity” value is reported as 0.87 fold. For the same compound, in data set [2], the Ki is 480 nM and the inhibition at 10 µM was determined as 27%.
Regarding `Nc1c(Sc2ccccc2)cc(Sc2ccccc2)c2c1C(=O)c1ccccc1C2=O` [compound 38], at human A2AAR receptor (Sf9 membranes), the “A2AAR affinity (in words)” value was “low-µM affinity”.
Turning to `N#Cc1c(N)nc2c(C(N)=O)c(Nc3ccccc3)sc2c1-c1ccccc1` [compound 8], in data set [1], the Ki is 1140 nM, the “Max Displacement at A2AAR-HEK membranes” value is 53% and the “A2A / A1 selectivity” value is 0.05 fold. Moreover, in data set [2], the Ki was 60 nM and the inhibition at 10 µM was 100%. The “A2AAR antagonist functional activity (in words)” value in data set [3] is listed as “No A2AAR specific activity; also recorded: does not have any functional activity”.
For `Cn1c(=O)cc2c3c(c(N)ccc31)C(=O)c1ccccc1-2` [compound 35], in data set [1], the affinity corresponds to a Ki of 200 nM, the “Max Displacement at A2AAR-HEK membranes” value was 100% and the “A2A / A1 selectivity” value was 0.75 fold. Besides, at human A2AAR receptor (Sf9 membranes), the “A2AAR affinity (in words)” value is reported as “sub-µM affinity”. In data set [2], the Ki is 150 nM and the inhibition at 10 µM turned out to be 100%.
The compound `CN1CCc2sc3nc(C(=O)Nc4ccc(F)cc4)c(N)cc3c2C1` [compound 7] registered a Ki at human A2AAR receptor of 1900 nM.
Consider `COc1ccc(N)c2c1C(=O)c1ccccc1C2=O` [compound 26], for which, in data set [1], the Ki worked out at 100 nM, the “Max Displacement at A2AAR-HEK membranes” value is recorded as 100% and the “A2A / A1 selectivity” value is 2.74 fold. On human A2AAR receptor (Sf9 membranes), the “A2AAR affinity (in words)” value is given as “sub-µM affinity”. Besides, in data set [2], the affinity corresponds to a Ki of 260 nM and the inhibition at 10 µM was found to be 100%.
In data set [1], `Nc1ccc(Cl)c2c1C(=O)c1ccccc1C2=O` [compound 49] registered a Ki of 940 nM. Further, the “A2AAR affinity (in words)” value at human A2AAR receptor (Sf9 membranes) was “sub-µM affinity”. In data set [2], affinity was put at a Ki of 190 nM and the inhibition at 10 µM worked out at 100%.
As for `CN1CCc2nc3sc(C(=O)Nc4ccc(Cl)cc4)c(N)c3cc2C1` [compound 10], in data set [1], the Ki was more than 10000 nM. The “binding to the HEK293 expressed A2AAR protein (in words)” value in data set [1] (HEK293 membranes) is reported as “did not show any substantial binding”. In data set [2], the Ki is 1120 nM and the inhibition at 10 µM worked out at 28%.
Regarding `NC1=C(Nc2cccc(C(F)(F)F)c2)C(=O)c2ccccc2C1=O` [compound 17], in data set [1], affinity was put at a Ki of 720 nM, the “Max Displacement at A2AAR-HEK membranes” value turned out to be 73% and the “A2A / A1 selectivity” value was more than 10. fold. Further, the “LE (experimental ligand efficiency)” value on human A2AAR receptor is ~ 0.4 kcal/mol per heavy atom. In data set [2], this compound gave an inhibitory constant (Ki) of more than 10000 nM. Also, the “A2AAR antagonist functional activity (in words)” value in data set [3] is “significant activity”.
For `Nc1c(C(=O)Nc2ccccc2F)sc2nc3c(cc12)C(=O)CCC3` [compound 6], in data set [4], the “effect on forskolin stimulated cAMP generation” value is “inhibited”. Besides, in data set [1], the Ki was determined as 60 nM, the “Max Displacement at A2AAR-HEK membranes” value is recorded as 48% and the “A2A / A1 selectivity” value is given as 1.42 fold. In data set [2], the Ki was 90 nM and the inhibition at 10 µM was 32%. Further, the “A2AAR antagonist functional activity (in words)” value in data set [3] is on record as “the effect does not depend on agonist concentration”.
In the case of `Nc1cccc2c1C(=O)c1ccccc1C2=O` [compound 28], the “A2AAR affinity (in words)” value on human A2AAR receptor (Sf9 membranes) is given as “low-µM affinity”.
Take `Nc1c(Oc2ccccc2)ccc2c1C(=O)c1ccccc1C2=O` [compound 20]: the “A2AAR affinity (in words)” value on human A2AAR receptor (Sf9 membranes) is reported as “low-µM affinity”.
As for `Cc1cccc(NC2=C(N)C(=O)c3ccccc3C2=O)c1` [compound 50], in data set [1], the inhibitory constant (Ki) came out at 150 nM and the “Max Displacement at A2AAR-HEK membranes” value is given as 50%. The “LE (experimental ligand efficiency)” value on human A2AAR receptor is reported as ~ 0.4 kcal/mol per heavy atom. Moreover, in data set [2], the Ki worked out at 1750 nM and the inhibition at 10 µM came out at 27%. Besides, in data set [3], the “A2AAR antagonist functional activity (in words)” value is reported as “significant activity”.
For the compound `Nc1ccc(-c2nc3c(N)cccc3[nH]2)cc1` [compound 57], the “LE (experimental ligand efficiency)” value at human A2AAR receptor is recorded as 0.32 kcal/mol per heavy atom.
Regarding `CC(=O)Oc1cccc(-c2nc(C(N)=O)c(N)o2)c1` [compound 46], on human A2AAR receptor (Sf9 membranes), the “A2AAR affinity (in words)” value is “modest affinity”. Further, the “LE (experimental ligand efficiency)” value on human A2AAR receptor was 0.32 kcal/mol per heavy atom.
In the case of `COc1ccc(Cl)cc1Nc1nc(N)nc(-c2oc3ccccc3c2C)n1` [compound 9], in data set [1], the Ki amounted to 490 nM, the “Max Displacement at A2AAR-HEK membranes” value is listed as 41% and the “A2A / A1 selectivity” value was 2.94 fold. Besides, at human A2AAR receptor, the Ki turned out to be 30 nM. The “displacement of the hot ligand” value at human A2AAR receptor (Sf9 membranes, at 2 µM) was “up to 80%”. In data set [2], the affinity, expressed as Ki, was 1440 nM and the inhibition at 10 µM turned out to be 41%. Moreover, the “concentration with visible sedimentation of the compound” value in data set [5] was “above 10 µM”. In addition, the “A2AAR antagonist functional activity (in words)” value in data set [3] was “one of the highest among the tested ligands”.
With `Nc1c(C(=O)Nc2nccs2)sc2nc3c(cc12)C(=O)CCC3` [compound 14], in data set [1], the Ki was 60 nM, the “Max Displacement at A2AAR-HEK membranes” value turned out to be 54% and the “A2A / A1 selectivity” value stood at 2.24 fold. Moreover, in data set [2], the Ki came to 140 nM and the inhibition at 10 µM is 25%.
Regarding `Nc1ccc(N)c2c1C(=O)c1ccccc1C2=O` [compound 29], in data set [1], the Ki is 110 nM, the “Max Displacement at A2AAR-HEK membranes” value came to 100% and the “A2A / A1 selectivity” value is 2.51 fold. In addition, at human A2AAR receptor (Sf9 membranes), the “A2AAR affinity (in words)” value is reported as “sub-µM affinity”. Also, in data set [2], the Ki stood at 280 nM and the inhibition at 10 µM was found to be 100%.
Take `Nc1c(C(=O)c2ccccc2)oc2ccc(Br)cc12` [compound 16]: the “A2AAR affinity (in words)” value at human A2AAR receptor (Sf9 membranes) is recorded as “modest affinity”. Moreover, the “LE (experimental ligand efficiency)” value at human A2AAR receptor came out at 0.38 kcal/mol per heavy atom.
Turning to `Cc1ccc(N2C(=O)c3cccc(N)c3C2=O)cc1` [compound 21], in data set [1], the “Max Displacement at A2AAR-HEK membranes” value is 57% and the “A2A / A1 selectivity” value is given as 0.13 fold. Further, the “A2AAR affinity (in words)” value at human A2AAR receptor (Sf9 membranes) is reported as “modest”. Further, in data set [2], the affinity, expressed as Ki, was 390 nM and the inhibition at 10 µM was 86%.

As usually defined, the Ki is the dissociation constant of the complex between target and ligand, obtained from inhibition or displacement.
